Data published in patent US10660877B2 (BRISTOL-MYERS SQUIBB COMPANY, priority 2016, dated 2020).
Where two headings read alike, the source gives them in different places.

How the values were obtained:
[1] = biological target: human TLR8 (Homo sapiens (Human), UniProt Q9NR97); experiment: TLR8 inhibition reporter assay (HEK-Blue cells, SEAP reporter, R848 stimulation);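 also: compounds tested from 0.05 nM to 50 µM, 22 h at 37 °C, SEAP measured with HEK-Blue Detection, inhibition relative to agonist plus DMSO versus a known inhibitor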
Sequence of human TLR8 (Q9NR97 27-1041): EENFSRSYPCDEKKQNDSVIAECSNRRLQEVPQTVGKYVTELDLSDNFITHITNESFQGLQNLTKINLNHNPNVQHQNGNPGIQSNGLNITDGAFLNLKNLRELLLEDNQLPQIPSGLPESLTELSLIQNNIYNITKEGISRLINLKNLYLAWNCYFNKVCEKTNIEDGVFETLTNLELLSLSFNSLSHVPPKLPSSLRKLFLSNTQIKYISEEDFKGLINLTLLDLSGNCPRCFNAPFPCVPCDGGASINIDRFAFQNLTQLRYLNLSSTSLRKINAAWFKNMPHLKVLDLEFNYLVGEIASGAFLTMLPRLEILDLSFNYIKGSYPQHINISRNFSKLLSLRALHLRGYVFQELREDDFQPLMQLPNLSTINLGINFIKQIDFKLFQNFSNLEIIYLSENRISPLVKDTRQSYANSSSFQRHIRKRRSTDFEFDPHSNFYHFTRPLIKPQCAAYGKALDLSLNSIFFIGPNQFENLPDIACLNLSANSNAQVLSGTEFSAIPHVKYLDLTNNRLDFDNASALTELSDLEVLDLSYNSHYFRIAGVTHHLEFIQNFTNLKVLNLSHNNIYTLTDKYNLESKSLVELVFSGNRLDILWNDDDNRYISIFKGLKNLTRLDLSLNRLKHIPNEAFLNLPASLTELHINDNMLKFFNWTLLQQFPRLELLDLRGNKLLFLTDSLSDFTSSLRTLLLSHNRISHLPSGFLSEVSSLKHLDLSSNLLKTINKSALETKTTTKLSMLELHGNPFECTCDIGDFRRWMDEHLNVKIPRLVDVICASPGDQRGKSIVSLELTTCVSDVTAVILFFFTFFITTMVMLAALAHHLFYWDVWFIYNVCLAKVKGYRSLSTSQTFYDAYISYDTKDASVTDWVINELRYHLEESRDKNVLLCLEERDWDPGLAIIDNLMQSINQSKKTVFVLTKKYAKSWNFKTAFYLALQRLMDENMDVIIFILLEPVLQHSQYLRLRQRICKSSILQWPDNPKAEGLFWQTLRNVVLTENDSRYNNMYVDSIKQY

[2] = biological target: human TLR7 (Homo sapiens (Human), UniProt Q9NYK1); experiment: TLR7 inhibition reporter assay (HEK-Blue cells, SEAP reporter, gardiquimod stimulation); type: cell-based
Sequence of human TLR7 (Q9NYK1 27-1049): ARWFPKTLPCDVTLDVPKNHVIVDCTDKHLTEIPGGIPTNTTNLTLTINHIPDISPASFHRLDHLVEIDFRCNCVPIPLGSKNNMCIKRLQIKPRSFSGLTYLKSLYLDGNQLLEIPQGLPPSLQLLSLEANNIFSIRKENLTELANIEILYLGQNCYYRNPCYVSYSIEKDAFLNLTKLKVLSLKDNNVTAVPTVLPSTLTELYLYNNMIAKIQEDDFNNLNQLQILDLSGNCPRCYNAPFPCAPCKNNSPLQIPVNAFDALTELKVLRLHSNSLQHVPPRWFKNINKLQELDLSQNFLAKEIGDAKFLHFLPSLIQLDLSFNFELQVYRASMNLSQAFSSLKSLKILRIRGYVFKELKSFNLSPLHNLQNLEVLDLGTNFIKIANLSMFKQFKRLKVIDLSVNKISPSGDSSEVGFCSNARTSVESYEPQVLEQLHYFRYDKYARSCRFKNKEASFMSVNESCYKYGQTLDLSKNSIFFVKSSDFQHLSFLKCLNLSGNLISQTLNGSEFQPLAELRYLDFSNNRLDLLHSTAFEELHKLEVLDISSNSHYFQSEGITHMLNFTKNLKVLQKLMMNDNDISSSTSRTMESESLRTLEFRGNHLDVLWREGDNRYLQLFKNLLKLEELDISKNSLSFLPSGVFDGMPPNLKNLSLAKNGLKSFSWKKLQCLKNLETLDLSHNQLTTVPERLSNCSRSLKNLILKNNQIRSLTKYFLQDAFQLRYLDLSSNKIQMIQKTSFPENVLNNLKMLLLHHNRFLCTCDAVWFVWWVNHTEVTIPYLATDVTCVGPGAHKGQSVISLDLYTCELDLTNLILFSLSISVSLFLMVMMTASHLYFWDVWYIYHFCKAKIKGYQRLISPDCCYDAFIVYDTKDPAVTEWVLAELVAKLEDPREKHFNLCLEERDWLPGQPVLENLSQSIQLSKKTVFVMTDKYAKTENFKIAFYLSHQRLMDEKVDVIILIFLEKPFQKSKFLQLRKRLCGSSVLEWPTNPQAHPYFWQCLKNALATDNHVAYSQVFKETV

[3] = biological target: human TLR9 (Homo sapiens (Human), UniProt Q9NR96); experiment: TLR9 inhibition reporter assay (HEK-Blue cells, SEAP reporter, ODN2006 stimulation);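 also: compounds tested over 0.05 nM to 50 µM, 22 h incubation, inhibition taken as SEAP signal drop from agonist plus DMSO wells toward a known inhibitor control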
Sequence of human TLR9 (Q9NR96 26-1032): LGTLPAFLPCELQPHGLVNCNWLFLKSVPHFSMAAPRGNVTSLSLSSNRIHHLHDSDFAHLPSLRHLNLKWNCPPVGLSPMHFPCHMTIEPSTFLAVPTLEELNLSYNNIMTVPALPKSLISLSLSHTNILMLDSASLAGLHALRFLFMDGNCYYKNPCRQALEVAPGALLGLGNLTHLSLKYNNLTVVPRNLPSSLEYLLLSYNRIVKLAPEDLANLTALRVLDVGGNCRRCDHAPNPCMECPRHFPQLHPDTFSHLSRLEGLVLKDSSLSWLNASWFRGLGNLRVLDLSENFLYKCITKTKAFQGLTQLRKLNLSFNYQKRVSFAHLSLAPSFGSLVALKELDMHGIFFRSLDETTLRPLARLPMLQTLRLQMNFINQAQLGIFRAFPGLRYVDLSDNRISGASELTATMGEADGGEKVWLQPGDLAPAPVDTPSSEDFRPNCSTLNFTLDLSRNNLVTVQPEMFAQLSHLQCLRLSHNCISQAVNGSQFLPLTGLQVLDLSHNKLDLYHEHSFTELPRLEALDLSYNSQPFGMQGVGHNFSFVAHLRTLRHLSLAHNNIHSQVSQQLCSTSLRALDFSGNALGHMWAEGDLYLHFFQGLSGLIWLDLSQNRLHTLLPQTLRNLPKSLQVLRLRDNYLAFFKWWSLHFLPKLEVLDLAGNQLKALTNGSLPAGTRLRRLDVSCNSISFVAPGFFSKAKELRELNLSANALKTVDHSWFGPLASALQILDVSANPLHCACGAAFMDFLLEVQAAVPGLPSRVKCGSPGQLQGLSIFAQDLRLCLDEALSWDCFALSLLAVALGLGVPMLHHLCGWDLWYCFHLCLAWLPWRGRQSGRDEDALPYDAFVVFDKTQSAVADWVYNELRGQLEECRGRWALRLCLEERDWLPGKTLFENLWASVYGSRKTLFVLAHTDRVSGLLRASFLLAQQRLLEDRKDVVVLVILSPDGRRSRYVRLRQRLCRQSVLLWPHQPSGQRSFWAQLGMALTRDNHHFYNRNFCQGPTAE

[4] = read-out: TLR8 IC50, HEK-Blue cells overexpressing human TLR8, R848 15.9 μM
[5] = HEK-Blue cells overexpressing human TLR7, gardiquimod 7.5 μM
[6] = read-out: TLR9 IC50, HEK-Blue cells overexpressing human TLR9, ODN2006 5 nM
[7] = read-out: TLR8 IC50, HEK-Blue cells, R848 15.9 μM
[8] = HEK-Blue cells, gardiquimod 7.5 μM
[9] = read-out: TLR9 IC50, HEK-Blue cells, ODN2006 5 nM

IC50 [1, 4]	IC50 [2, 5]	IC50 [3, 6]	IC50 [1, 7]	IC50 [2, 8]	IC50 [3, 9]	SMILES
0.0271 µM	0.0059 µM	0.71 µM				Cc1cc(-c2[nH]c3ccc(C4CCN(CC(=O)N(C)C)CC4)cc3c2C(C)C)cc(C2CC2)n1 [Example 505, 2-(4-(2-(2-cyclopropyl-6-methylpyridin-4-yl)-3-isopropyl-1H-indol-5-yl)piperidin-1-yl)-N,N-dimethylacetamide]
0.0119 µM	0.0447 µM	0.042 µM				CCc1c(-c2ccnc(C)c2)[nH]c2ccc(C3CCN(CC4CCN(C(C)C)CC4)CC3)cc12 [Example 675, 3-ethyl-5-(1-((1-isopropylpiperidin-4-yl)methyl)piperidin-4-yl)-2-(2-methylpyridin-4-yl)-1H-indole]
0.0185 µM	0.034 µM	1.06 µM				Cc1cc(-c2[nH]c3ccc(C4CCN(C(=O)C5CCN(Cc6ccccc6)C5)CC4)cc3c2C(C)C)ccn1 (stereo not drawn) [Example 575, (1-benzylpyrrolidin-3-yl)(4-(3-isopropyl-2-(2-methylpyridin-4-yl)-1H-indol-5-yl)piperidin-1-yl)methanone]
			0.0023 µM	0.0014 µM	0.291 µM	Cc1cc(-c2[nH]c3ccc(C4CCN(CC(O)C(C)C)CC4)cc3c2C(C)C)cc(C)n1 (stereo not drawn) [Example 849, 1-(4-(2-(2,6-dimethylpyridin-4-yl)-3-isopropyl-1H-indol-5-yl)piperidin-1-yl)-3-methylbutan-2-ol]
0.316 µM	0.577 µM	0.206 µM				COc1cc(-c2[nH]c3ccc(C4CCN(C5CCN(CC(C)C)CC5)CC4)cc3c2C)ccn1 [Example 781, 5-(1′-isobutyl-[1,4′-bipiperidin]-4-yl)-2-(2-methoxypyridin-4-yl)-3-methyl-1H-indole]
0.0112 µM	0.011 µM	2.16 µM				Cc1cc(-c2[nH]c3ccc(C4CCN(C5COC5)CC4)cc3c2C(C)C)ccn1 [Example 711, 3-isopropyl-2-(2-methylpyridin-4-yl)-5-(1-(oxetan-3-yl)piperidin-4-yl)-1H-indole]
			0.0081 µM	0.0065 µM	0.38 µM	Cc1cc(-c2[nH]c3cc(F)c(C4CCN(C5CCN(C(C)C)CC5)CC4)cc3c2C(C)C)ccn1 [Example 825, 6-fluoro-3-isopropyl-5-(1′-isopropyl-[1,4′-bipiperidin]-4-yl)-2-(2-methylpyridin-4-yl)-1H-indole]
			0.0296 µM	0.0094 µM	0.556 µM	Cc1cc(-c2[nH]c3cc(F)c(C4CCN(C5CC(C)OC(C)C5)CC4)cc3c2C(C)C)cc(C)n1 (stereo not drawn) [Example 833, 2-(2,6-dimethylpyridin-4-yl)-5-(1-(2,6-dimethyltetrahydro-2H-pyran-4-yl)piperidin-4-yl)-6-fluoro-3-isopropyl-1H-indole]
0.214 µM	0.0382 µM	21.5 µM				Cc1cc(-c2[nH]c3ccc(C4CCN(C(=O)c5cscn5)CC4)cc3c2C(C)C)ccn1 [Example 609, (4-(3-isopropyl-2-(2-methylpyridin-4-yl)-1H-indol-5-yl)piperidin-1-yl)(thiazol-4-yl)methanone]
0.333 µM	0.0797 µM	0.986 µM				COc1cc(-c2[nH]c3ccc(C4CCN(C5CCN(CC(C)C)CC5)CC4)cc3c2C(C)C)ccn1 [Example 803, 5-(1′-isobutyl-[1,4′-bipiperidin]-4-yl)-3-isopropyl-2-(2-methoxypyridin-4-yl)-1H-indole]
0.001 µM	0.0098 µM	1.37 µM				Cc1cc(-c2[nH]c3ccc(C4CCN(C)CC4)cc3c2C(C)C)c(C)cn1 [Example 636, 2-(2,5-dimethylpyridin-4-yl)-3-isopropyl-5-(1-methylpiperidin-4-yl)-1H-indole]
0.0229 µM	0.0267 µM	0.876 µM				Cc1cc(-c2[nH]c3ccc(C4CCN(C(=O)C5CCN(Cc6ccccc6)CC5)CC4)cc3c2C(C)C)ccn1 [Example 567, (1-benzylpiperidin-4-yl)(4-(3-isopropyl-2-(2-methylpyridin-4-yl)-1H-indol-5-yl)piperidin-1-yl)methanone]
0.235 µM	0.276 µM	17.1 µM				CCc1c(-c2ccnc(C)c2)[nH]c2ccc(C3CCN(C(=O)c4ccnc(F)c4)CC3)cc12 [Example 592, (4-(3-ethyl-2-(2-methylpyridin-4-yl)-1H-indol-5-yl)piperidin-1-yl)(2-fluoropyridin-4-yl)methanone]
0.325 µM	0.531 µM	0.546 µM				CCc1c(-c2ccnc(C)c2)[nH]c2ccc(C3CCN(C(=O)C4CCNCC4c4ccccc4)CC3)cc12 (stereo not drawn) [Example 627, (4-(3-ethyl-2-(2-methylpyridin-4-yl)-1H-indol-5-yl)piperidin-1-yl)(3-phenylpiperidin-4-yl)methanone]
0.0556 µM	0.472 µM	0.324 µM				CNCCN1CCC(c2ccc3[nH]c(-c4ccnc(Cl)c4)c(C)c3c2)CC1 [Example 751, 2-(4-(2-(2-chloropyridin-4-yl)-3-methyl-1H-indol-5-yl)piperidin-1-yl)-N-methylethan-1-amine]

More lines, now with the values behind:

SMILES	IC50 [1, 4]	IC50 [2, 5]	IC50 [3, 6]	IC50 [1, 7]	IC50 [2, 8]	IC50 [3, 9]
Cc1cc(-c2[nH]c3ccc(C4CCN(C(=O)c5ccc6n(c5=O)CCC6)CC4)cc3c2C(C)C)cc(C)n1 [Example 144, 6-(4-(2-(2,6-dimethylpyridin-4-yl)-3-isopropyl-1H-indol-5-yl)piperidine-1-carbonyl)-2,3-dihydroindolizin-5(1H)-one]	0.17 µM	0.02 µM	> 50 µM			
CC(C)c1c(-c2ccnc(N)c2)[nH]c2ccc(C3CCNCC3)cc12 [Example 8, 4-(3-isopropyl-5-(piperidin-4-yl)-1H-indol-2-yl)pyridin-2-amine]	0.0288 µM	0.0344 µM	0.16 µM			
Cc1cc(-c2[nH]c3ccc(C4CCN(CC(O)C(F)(F)F)CC4)cc3c2C(C)C)cc(C)n1 (stereo not drawn) [Example 313, 3-(4-(2-(2,6-dimethylpyridin-4-yl)-3-isopropyl-1H-indol-5-yl)piperidin-1-yl)-1,1,1-trifluoropropan-2-ol]	0.0063 µM	0.0399 µM	8.06 µM			
CCC(CC)N1CCC(c2ccc3[nH]c(-c4cc(C)nc(C)c4)c(C(C)C)c3c2)CC1 [Example 436, 2-(2,6-dimethylpyridin-4-yl)-3-isopropyl-5-(1-(pentan-3-yl)piperidin-4-yl)-1H-indole]	0.0047 µM	0.0045 µM	0.094 µM			
Cc1cc(-c2[nH]c3ccc(C4CCN(CC(C)C)CC4)cc3c2C(C)C)cc(C)n1 [Example 471, 2-(2,6-dimethylpyridin-4-yl)-5-(1-isobutylpiperidin-4-yl)-3-isopropyl-1H-indole]	0.008 µM	0.0024 µM	0.61 µM			
Cc1cc(-c2[nH]c3ccc(C4CCN(C(=O)Cn5nnnc5C)CC4)cc3c2C(C)C)cc(C)n1 [Example 159, 1-(4-(2-(2,6-dimethylpyridin-4-yl)-3-isopropyl-1H-indol-5-yl)piperidin-1-yl)-2-(5-methyl-1H-tetrazol-1-yl)ethan-1-one]	0.0472 µM	0.0048 µM	24.4 µM			
Cc1cc(-c2[nH]c3ccc(C4CCN(CC(=O)N(C)C5CC5)CC4)cc3c2C(C)C)cc(C)n1 [Example 248, N-cyclopropyl-2-(4-(2-(2,6-dimethylpyridin-4-yl)-3-isopropyl-1H-indol-5-yl)piperidin-1-yl)-N-methylacetamide]	0.0102 µM	0.0023 µM	0.343 µM			
Cc1cc(-c2[nH]c3ccc(C4CCN(CC(=O)NCC5CCCO5)CC4)cc3c2C(C)C)cc(C)n1 (stereo not drawn) [Example 266, 2-(4-(2-(2,6-dimethylpyridin-4-yl)-3-isopropyl-1H-indol-5-yl)piperidin-1-yl)-N-((tetrahydrofuran-2-yl)methyl)acetamide]	0.0108 µM	0.0032 µM	0.522 µM			
Cc1cc(-c2[nH]c3ccc(C4CCN(C(=O)CN(C)C5CCS(=O)(=O)C5)CC4)cc3c2C(C)C)cc(C)n1 (stereo not drawn) [Example 147, 1-(4-(2-(2,6-dimethylpyridin-4-yl)-3-isopropyl-1H-indol-5-yl)piperidin-1-yl)-2-((1,1-dioxidotetrahydrothiophen-3-yl)(methyl)amino)ethan-1-one]	0.0423 µM	0.0067 µM	3.84 µM			
CC(C)c1c(-c2c(Cl)cncc2Cl)[nH]c2ccc(C3CCNCC3)cc12 [Example 20, 2-(3,5-dichloropyridin-4-yl)-3-isopropyl-5-(piperidin-4-yl)-1H-indole]	0.128 µM	1.66 µM	7.79 µM			
Cc1cc(-c2[nH]c3ccc(C4CCNCC4)cc3c2C(C)(C)C)cc(C)n1 [Example 96, 3-(tert-butyl)-2-(2,6-dimethylpyridin-4-yl)-5-(piperidin-4-yl)-1H-indole]	0.0233 µM	0.0091 µM	1.32 µM			
Cc1cc(-c2[nH]c3ccc(C4CCN(C(=O)Cn5ccc(C6CC6)n5)CC4)cc3c2C(C)C)cc(C)n1 [Example 162, 2-(3-cyclopropyl-1H-pyrazol-1-yl)-1-(4-(2-(2,6-dimethylpyridin-4-yl)-3-isopropyl-1H-indol-5-yl)piperidin-1-yl)ethan-1-one]	0.129 µM	0.0185 µM	16.2 µM			
Cc1cc(-c2[nH]c3ccc(C4CCN(C(=O)CN5CC[C@H](O)C5)CC4)cc3c2C(C)C)cc(C)n1 [Example 380, (S)-1-(4-(2-(2,6-dimethylpyridin-4-yl)-3-isopropyl-1H-indol-5-yl)piperidin-1-yl)-2-(3-hydroxypyrrolidin-1-yl)ethan-1-one]	0.0105 µM	0.002 µM	0.354 µM			
CC(C)c1c(-c2ccncc2NC(=O)C(C)(C)C)[nH]c2ccc(C3CCNCC3)cc12 [Example 37, N-(4-(3-isopropyl-5-(piperidin-4-yl)-1H-indol-2-yl)pyridin-3-yl) pivalamide]	0.635 µM	42.7 µM	6.1 µM			
